Source: the supplement of paper PMC10307832

Assays:
Experiment in all cases: relative viability (nuclei count vs DMSO), 5 days (fraction); higher = more cells survive
Pimozide = compound: O=c1[nH]c2ccccc2n1C1CCN(CCCC(c2ccc(F)cc2)c2ccc(F)cc2)CC1 [Pimozide]
Method in brief: (§1)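 After an overnight hold at 37 °C, lung cancer cell lines in 1536-well plates were pinned with five library-drug doses (not always all listed), each √10 from the next, on vehicle-anchored plates. The cells stayed 5 days without fresh medium, then a one-step fix, permeabilisation and Hoechst stain preceded 4× imaging and MetaXpress nuclear counts. A plate passed only with control CV under 25% and at least one doubling. Viability is the median, over plates, of treated-well nuclei relative to vehicle-well nuclei.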

JQ1 = compound: Cc1sc2c(c1C)C(c1ccc(Cl)cc1)=N[C@@H](CC(=O)OC(C)(C)C)c1nnc(C)n1-2 [JQ1]
Method in brief: as §1

Cytarabine = compound: Nc1ccn([C@@H]2O[C@H](CO)[C@@H](O)[C@@H]2O)c(=O)n1 [Cytarabine]
Method in brief: as §1

CPI-613 = compound: O=C(O)CCCCC(CCSCc1ccccc1)SCc1ccccc1 [CPI-613]
Method in brief: as §1

Docetaxel = compound: CC(=O)O[C@@]12CO[C@@H]1C[C@H](O)[C@@]1(C)C(=O)[C@H](O)C3=C(C)[C@@H](OC(=O)[C@H](O)[C@@H](NC(=O)OC(C)(C)C)c4ccccc4)C[C@@](O)([C@@H](OC(=O)c4ccccc4)[C@H]21)C3(C)C [Docetaxel]
Method in brief: as §1

[1] = compound: Cc1cnc(-c2cnc(NCCNc3ccc(C#N)cn3)nc2-c2ccc(Cl)cc2Cl)[nH]1
Method in brief: as §1

Tivozanib = compound: COc1cc2nccc(Oc3ccc(NC(=O)Nc4cc(C)on4)c(Cl)c3)c2cc1OC [Tivozanib]
Method in brief: as §1

| Cell Line | relative viability (Pimozide; 0.08 µM) | relative viability (Pimozide; 0.253 µM) | relative viability (Pimozide; 0.8 µM) | relative viability (Pimozide; 2.53 µM) | relative viability (Pimozide; 8 µM) | relative viability (JQ1; 0.04 µM) | relative viability (JQ1; 0.1265 µM) | relative viability (JQ1; 0.4 µM) | relative viability (JQ1; 1.265 µM) | relative viability (JQ1; 4 µM) | relative viability (Cytarabine; 0.005 µM) | relative viability (Cytarabine; 0.01581 µM) | relative viability (Cytarabine; 0.05 µM) | relative viability (Cytarabine; 0.1581 µM) | relative viability (Cytarabine; 0.5 µM) | relative viability (CPI-613; 5 µM) | relative viability (CPI-613; 15.81 µM) | relative viability (CPI-613; 50 µM) | relative viability (CPI-613; 158.11 µM) | relative viability (CPI-613; 500 µM) | relative viability (Docetaxel; 0.0002 µM) | relative viability (Docetaxel; 0.000632 µM) | relative viability (Docetaxel; 0.002 µM) | relative viability (Docetaxel; 0.006325 µM) | relative viability (Docetaxel; 0.02 µM) | relative viability ([1]; 0.08 µM) | relative viability ([1]; 0.8 µM) | relative viability ([1]; 2.53 µM) | relative viability (Tivozanib; 0.005 µM) | relative viability (Tivozanib; 0.01581 µM) | relative viability (Tivozanib; 0.05 µM) | relative viability (Tivozanib; 0.1581 µM) | relative viability (Tivozanib; 0.5 µM) | relative viability ([1]; 0.253 µM) |
| --- | --- | --- | --- | --- | --- | --- | --- | --- | --- | --- | --- | --- | --- | --- | --- | --- | --- | --- | --- | --- | --- | --- | --- | --- | --- | --- | --- | --- | --- | --- | --- | --- | --- | --- |
| NCI-H1944 | 0.925 | 0.877 | 0.698 | 0.795 | 0.944 | 0.951 | 0.709 | 0.612 | 0.53 | 0.485 | 0.654 | 0.481 | 0.381 | 0.23 | 0.159 | 0.918 | 0.922 | 0.947 | 0.712 | 0.51 | 0.948 | 1 | 0.822 | 0.336 | 0.173 | 1.09 | 1.01 | 0.916 | 0.925 | 0.998 | 0.949 | 0.849 | 0.978 |  |
| NCI-H1355 | 0.968 | 0.964 | 0.954 | 0.956 | 0.907 | 0.963 | 0.951 | 0.917 | 0.629 | 0.535 | 0.89 | 0.922 | 0.758 | 0.489 | 0.302 | 0.963 | 0.95 | 0.949 | 0.735 | 0.0943 | 0.982 | 0.91 | 0.517 | 0.272 | 0.227 | 0.995 | 0.939 | 0.907 | 0.941 | 0.938 | 1.05 | 0.702 | 0.897 | 0.874 |
| NCI-H2009 | 0.997 | 0.985 | 1.01 | 0.909 | 0.926 | 0.96 | 0.645 | 0.574 | 0.297 | 0.313 | 1.01 | 1.01 | 0.997 | 0.724 | 0.398 | 0.995 | 0.939 | 0.923 | 0.24 | 0.0296 | 0.955 | 1 | 0.944 | 0.456 | 0.239 | 1.01 | 1.08 | 0.943 | 0.955 | 1 | 1.02 | 0.994 | 0.91 | 0.93 |
| NCI-H1792 | 0.936 | 0.843 | 0.62 | 0.81 | 0.763 | 0.801 | 0.605 | 0.844 | 0.408 | 0.156 |  | 0.908 | 0.45 | 0.411 | 0.231 | 0.896 | 0.793 | 0.956 | 0.651 | 0.511 | 0.715 | 0.677 | 0.291 | 0.213 | 0.131 | 1.02 | 0.923 | 0.951 | 0.893 | 0.912 | 1.11 | 0.51 | 0.762 | 0.793 |
| LCLC-103H | 0.975 | 0.905 | 0.911 | 0.969 | 0.963 | 0.979 | 0.83 | 0.906 | 0.658 | 0.427 | 0.912 | 0.991 | 1.01 | 0.965 | 0.894 | 0.999 | 0.95 | 0.99 | 0.854 | 0.773 | 0.973 | 1.09 | 0.903 | 0.502 | 0.458 | 1.03 | 0.989 | 0.952 | 0.996 | 0.995 | 1.06 | 0.982 | 0.994 | 0.865 |
| HCC-44 | 0.986 | 0.95 | 0.876 | 0.911 | 0.952 | 0.977 | 0.776 | 0.778 | 0.438 | 0.308 | 0.989 | 0.882 | 0.643 | 0.614 | 0.356 | 1.01 | 0.958 | 1.03 | 0.869 | 0.51 | 0.956 | 0.949 | 0.587 | 0.296 | 0.198 | 0.986 | 1.07 | 1.08 | 0.936 | 0.949 | 0.976 | 1.02 | 0.87 | 0.867 |
| SW 1573 | 0.923 | 1.02 | 0.945 | 0.82 | 0.637 | 0.869 | 0.791 | 0.637 | 0.365 | 0.345 | 0.969 | 0.87 | 0.725 | 0.38 | 0.157 | 0.917 | 0.851 | 0.958 | 0.482 | 0.314 | 0.872 | 0.485 | 0.252 | 0.205 | 0.152 | 1.1 | 0.997 | 0.6 | 0.969 | 0.914 | 1.01 | 0.903 | 0.829 | 0.999 |
| LC-2-ad | 0.942 | 0.894 | 0.82 | 0.974 | 0.897 | 0.996 | 0.462 | 0.545 | 0.31 | 0.286 | 0.832 | 0.856 | 0.778 | 0.487 | 0.296 | 0.876 | 0.924 | 0.968 | 0.392 | 0.029 | 0.653 | 0.46 | 0.328 | 0.282 | 0.202 | 1.03 | 0.824 | 0.982 | 0.975 | 0.995 | 0.928 | 0.815 | 0.569 |  |
| HCC-15 | 1.05 | 0.965 | 0.725 | 0.961 | 0.9 | 0.97 |  | 0.859 | 0.656 | 0.6 | 1.07 | 0.988 | 0.966 | 0.828 | 0.547 | 0.96 | 0.914 | 0.908 | 0.465 | 0.264 | 0.8 | 0.536 | 0.229 | 0.257 | 0.149 | 1.06 | 0.953 | 0.892 | 0.962 | 0.922 | 0.949 | 1.07 | 0.89 | 0.686 |
